Experimental data as given in the supplement of paper PMC11208160.

Test: recombinant barcode read abundance after kanamycin selection (control-corrected) (log10(CPM+1)); higher = more efficient recombination; sequences stand for … in AGTGCAGAGAAAATCGGCCAGTTTTCTCTGCCTGCAGTCCGCATGCCGT…AGATTTATGCAGCGGACTGCCTTTCTCCCAAAGTGATAAACCGGACAGTATCATGGACCGGTTTTCCCGGTAATCCGTATTTGCAAGGTTGGTTTCACT; site = the 11-nt target
Summary of the method: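 In a pooled screen in E. coli, targets were paired with target-binding loops of the IS621 bridge RNA. Each oligo carried a promoter, a target, a barcode and the first 104 bridge RNA bases driven by J23119, and was Gibson-cloned into a vector holding the remaining 73 bp and a T7-inducible recombinase before co-electroporation with a donor plasmid. Duplicate platings went onto chloramphenicol/ampicillin LB agar as the control or onto chloramphenicol/ampicillin/kanamycin with 0.1 mM IPTG. Recombination efficiency is the averaged, control-corrected count per million of barcodes at recombinant junctions, given as log10(CPM+1).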
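Also: IS621 recombinase and bridge RNA in Escherichia coli cells.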

Sequence	recombinant barcode read abundance (log10)
GGGGACTCTTGGGTTCTAACCTGTTGCAC (site GGGGACTCTGT)	3.1
GGGGCACCTTGGGTTCTAACCTGTTGCTA (site GGGGCACCTTA)	2.35
GGGGCACCTTGGGTTCTAACCTGTTGCTA (site TGGGCACCTAA)	0.128
GGGGCGCCTTGGGTTCTAACCTGTTGCCT (site GGGGCGACTAG)	0.44
GGGGCGCCTTGGGTTCTAACCTGTTGCCT (site GGGGCGCCTAG)	1.76
GGGGCGCCTTGGGTTCTAACCTGTTGCCT (site GGGGCGGCTAG)	0
GGGGCGCCTTGGGTTCTAACCTGTTGCCT (site GGGGCGTCTAG)	0.279
GGGGTGTCTTGGGTTCTAACCTGTTGCCG (site ATTTAACCTAC)	0.0514
GGGGTGTCTTGGGTTCTAACCTGTTGCCG (site GGGGTGTCTCG)	0.675
GGGGTGTCTTGGGTTCTAACCTGTTGCTG (site GGGCTGTCTAA)	0.448
GGGGTGTCTTGGGTTCTAACCTGTTGCTG (site GGGGTGTCTCA)	0.413
GGGGTTCCTTGGGTTCTAACCTGTTGCAT (site GGGGTTCCTAA)	0.164
GGGGTTCCTTGGGTTCTAACCTGTTGCAT (site GGGGTTCCTAC)	0.129
GGGGTTCCTTGGGTTCTAACCTGTTGCAT (site GGGGTTCCTAG)	1.19
GGGGTTCCTTGGGTTCTAACCTGTTGCAT (site GGGGTTCCTAT)	2.47
GGGTCACCTTGGGTTCTAACCTGTTGCGG (site CCAAAGACTAA)	0.564
GGGTCACCTTGGGTTCTAACCTGTTGCGG (site GGGTCACCTCC)	2.8
GGGTCCACTTGGGTTCTAACCTGTTGCGG (site GGGTCCACTCC)	2.02
GGGTCCACTTGGGTTCTAACCTGTTGCGG (site GGGTCCACTTG)	0.143
GGGTCGCCTTGGGTTCTAACCTGTTGCTT (site CGGCCGCCTAA)	0.364
GGGTCGCCTTGGGTTCTAACCTGTTGCTT (site GGGTCGCCTAA)	0.128
GGGTCGGCTTGGGTTCTAACCTGTTGCGT (site GGGTCGGCTAC)	2.68

Sequence	recombinant barcode read abundance (log10)
GGGTCGGCTTGGGTTCTAACCTGTTGCGT (site GGGTCGGCTCC)	0.076
GGGTCGGCTTGGGTTCTAACCTGTTGCGT (site GGGTCGGCTGC)	0.347
GGGTCGGCTTGGGTTCTAACCTGTTGCGT (site GGGTCGGCTTC)	0.0402
GGGTCTTCTTGGGTTCTAACCTGTTGCAT (site GGGACTTCTAT)	0.0343
GGGTCTTCTTGGGTTCTAACCTGTTGCAT (site GGGCCTTCTAT)	0.152
GGGTCTTCTTGGGTTCTAACCTGTTGCAT (site GGGGCTTCTAT)	0.0588
GGGTCTTCTTGGGTTCTAACCTGTTGCAT (site GGGTCTTCTAT)	0.575
GGGTTTGCTTGGGTTCTAACCTGTTGCCT (site GAGTTTGCTAG)	0
GGGTTTGCTTGGGTTCTAACCTGTTGCCT (site GCGTTTGCTAG)	0.0869
GGGTTTGCTTGGGTTCTAACCTGTTGCCT (site GGGTTTGCTAG)	1.14
GGGTTTGCTTGGGTTCTAACCTGTTGCCT (site GTGTTTGCTAG)	0.667
GGTACTACTTGGGTTCTAACCTGTTGCAT (site CGTACTACTGT)	0.0302
GGTACTACTTGGGTTCTAACCTGTTGCAT (site GGTACTACTAT)	0.54
GGTAGATCTTGGGTTCTAACCTGTTGCTT (site GGTAGATCTAA)	0.599
GGTAGATCTTGGGTTCTAACCTGTTGCTT (site GGTAGGCCTAA)	0.0553
GGTCAAACTTGGGTTCTAACCTGTTGCCT (site GGTCAAACTAG)	0.492
GGTCAAACTTGGGTTCTAACCTGTTGCCT (site GGTCCAACTAG)	0.0951
GGTCAAACTTGGGTTCTAACCTGTTGCCT (site GGTCGAACTAG)	0.109
GGTCAAACTTGGGTTCTAACCTGTTGCCT (site GGTCTAACTAG)	0.0309
GGTCAACCTTGGGTTCTAACCTGTTGCGG (site GGTCAACCTCC)	2.5
GGTCAACCTTGGGTTCTAACCTGTTGCGG (site TACTCTTCTAG)	0.113
GGTCATACTTGGGTTCTAACCTGTTGCCT (site GGTCATACTAG)	0.455

Sequence	recombinant barcode read abundance (log10)
GGTCATACTTGGGTTCTAACCTGTTGCCT (site GGTCATCCTAG)	0.0309
GGTCATACTTGGGTTCTAACCTGTTGCCT (site GGTCATGCTAG)	0.074
GGTCATACTTGGGTTCTAACCTGTTGCCT (site GGTCATTCTAG)	0.246
GGTCCTCCTTGGGTTCTAACCTGTTGCGA (site GGTCCTCCTTC)	0.847
GGTCCTCCTTGGGTTCTAACCTGTTGCGA (site TCCTAGTCTCT)	0.229
GGTCGCGCTTGGGTTCTAACCTGTTGCCT (site GGTCGAGCTAG)	0.113
GGTCGCGCTTGGGTTCTAACCTGTTGCCT (site GGTCGCGCTAG)	0.535
GGTCGCGCTTGGGTTCTAACCTGTTGCCT (site GGTCGGGCTAG)	0.832
GGTCGCGCTTGGGTTCTAACCTGTTGCCT (site GGTCGTGCTAG)	0.0211
GGTGACCCTTGGGTTCTAACCTGTTGCAT (site GGTGACCCTAT)	2.75
GGTGACCCTTGGGTTCTAACCTGTTGCAT (site TCGTGAGCTCA)	0.97
GGTGACCCTTGGGTTCTAACCTGTTGCGG (site GGTAACCCTCC)	2.05
GGTGACCCTTGGGTTCTAACCTGTTGCGG (site GGTCACCCTCC)	0.224
GGTGACCCTTGGGTTCTAACCTGTTGCGG (site GGTGACCCTCC)	2.73
GGTGACCCTTGGGTTCTAACCTGTTGCGG (site GGTTACCCTCC)	0.33
GGTGCTCCTTGGGTTCTAACCTGTTGCTT (site ATTGCTCCTAA)	0.135
GGTGCTCCTTGGGTTCTAACCTGTTGCTT (site GGTGCTCCTAA)	0.0711
GGTGGGTCTTGGGTTCTAACCTGTTGCTT (site GGTGGGTCTAA)	1.9
GGTGGGTCTTGGGTTCTAACCTGTTGCTT (site GGTGGGTCTAC)	0.663
GGTGGGTCTTGGGTTCTAACCTGTTGCTT (site GGTGGGTCTAG)	0.929
GGTGGGTCTTGGGTTCTAACCTGTTGCTT (site GGTGGGTCTAT)	1.69
GGTTAGCCTTGGGTTCTAACCTGTTGCCT (site GGTTAGCCTAG)	0.579
